pIC50: −log10 of the molar value.
Columns and labels:
Format in all cases: binding
KRAS G12S = molecular target: T1, KRAS G12S (Homo sapiens, UniProt P01116, G12S); experiment: HTRF assay of K-Ras G12S interaction with SOS1 (PPI-HTRF); settings: 5 nM KRAS G12S, read-out: PPI-HTRF-5 nM KRAS G12S
T1 construct: made in house; host or cells: E. coli, e.g. BL21 (DE3)
In short: (§1)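 HTRF on GST-K-Ras/His-hSOS1 was measured after ≥10 min in pH 7.4 HEPES buffer. IC50 values were derived from the ratiometric emission signal.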

KRAS G12D = molecular target: T2, KRAS G12D (Homo sapiens, UniProt P01116, G12D); experiment: HTRF assay of K-Ras G12D interaction with SOS1 (PPI-HTRF); settings: HTRF, 5 nM KRAS G12D; read-out: PPI-HTRF-5 nM KRAS G12D
T2 construct: made in house; host or cells: E. coli, e.g. BL21 (DE3)
T2 sequence (P01116 1-188 isoform P01116-2 G12D): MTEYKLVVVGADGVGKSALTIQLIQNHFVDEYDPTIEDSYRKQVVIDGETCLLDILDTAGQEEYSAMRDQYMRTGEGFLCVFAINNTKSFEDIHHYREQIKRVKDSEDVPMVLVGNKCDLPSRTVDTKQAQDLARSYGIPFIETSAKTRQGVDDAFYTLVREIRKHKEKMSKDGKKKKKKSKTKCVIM
In short: as §1

KRAS WT = molecular target: T3, KRAS WT (Homo sapiens, UniProt P01116); experiment: HTRF assay of wildtype K-Ras interaction with SOS1 (PPI-HTRF); settings: HTRF, 5 nM KRAS WT; read-out: PPI-HTRF-5 nM KRAS WT
T3 construct: made in house; host or cells: E. coli, e.g. BL21 (DE3)
T3 sequence (P01116 1-188 isoform P01116-2): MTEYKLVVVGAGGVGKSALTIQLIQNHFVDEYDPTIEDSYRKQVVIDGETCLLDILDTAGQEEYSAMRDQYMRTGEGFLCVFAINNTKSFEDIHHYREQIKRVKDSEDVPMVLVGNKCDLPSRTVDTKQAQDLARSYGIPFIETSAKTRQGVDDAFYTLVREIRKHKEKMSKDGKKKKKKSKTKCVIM
In short: as §1

Measured: pIC50

T1 sequence (P01116 1-188 isoform P01116-2 G12S): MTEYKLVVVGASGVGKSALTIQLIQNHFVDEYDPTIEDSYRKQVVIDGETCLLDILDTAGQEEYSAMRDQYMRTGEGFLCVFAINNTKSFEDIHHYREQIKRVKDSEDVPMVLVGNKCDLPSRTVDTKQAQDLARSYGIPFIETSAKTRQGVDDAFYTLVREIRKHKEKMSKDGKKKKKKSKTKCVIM

N#Cc1c(N)sc2c(F)ccc(-c3c(F)c4nc(OC[C@@]56CCCN5C[C@H](F)C6)nc(N5CCC6(CCN6C(=O)n6cncn6)C5)c4c(=O)n3C3CC3)c12 (stereo partly drawn) [Compound 267, 4-(4-(1-(1H-1,2,4-triazole-1-carbonyl)-1,6-diazaspiro[3.4]octan-6-yl)-6-cyclopropyl-8-fluoro-2-(((2R,7aS)-2-fluorotetrahydro-1H-pyrrolizin-7a(5H)-yl)methoxy)-5-oxo-5,6-dihydropyrido[4,3-d]pyrimidin-7-yl)-2-amino-7-fluorobenzo[b]thiophene-3-carbonitrile]
> 5.30: all assays above

C[C@H](Oc1nc(N2CCC3(CCCN3C(=O)n3cncn3)C2)c2cc(Cl)c(-c3ccc(F)c4sc(N)c(C#N)c34)c(F)c2n1)[C@@H]1CCCN1C (stereo partly drawn) [Compound 241, 4-(4-(1-(1H-1,2,4-triazole-1-carbonyl)-1,7-diazaspiro[4.4]nonan-7-yl)-6-chloro-8-fluoro-2-((S)-1-((S)-1-methylpyrrolidin-2-yl)ethoxy)quinazolin-7-yl)-2-amino-7-fluorobenzo[b]thiophene-3-carbonitrile]
> 5.30: all assays above

Nc1nc2c(-c3c(Cl)cc4c(N5CCCC6(CCCN6)C5)nc(OC[C@@]56CCCN5C[C@H](F)C6)nc4c3F)ccc(F)c2s1 (stereo partly drawn) [Compound 219, 4-(6-chloro-8-fluoro-2-(((2R,7aS)-2-fluorotetrahydro-1H-pyrrolizin-7a(5H)-yl)methoxy)-4-(1,7-diazaspiro[4.5]decan-7-yl)quinazolin-7-yl)-7-fluorobenzo[d]thiazol-2-amine]
> 5.30: all assays above
